Measured values as given in patent US8492392B2, “Alkoxy tetrahydro-pyridopyrimidine PDE10 inhibitors” (Merck Sharp & Dohme Corp., priority 2009, dated 2013).

Target: human PDE10A2 (Homo sapiens (Human), UniProt Q9Y233)
Assay: PDE10 fluorescence polarization (IMAP FP) inhibition assay
Assay type: biochemical
Settings: FAM-labeled cAMP substrate 50 nM, room temperature, apparent inhibition constant; read-out: PDE10A Ki
Description: The activity of the compounds in accordance with the present invention as PDE10 inhibitors may be readily determined without undue experimentation using a fluorescence polarization (FP) methodology that is well known in the art (Huang, W., et al., J. Biomol Screen, 2002, 7: 215).
In a typical experiment the PDE10 inhibitory activity of the compounds of the present invention was determined in accordance with the following experimental method. PDE10A2 was amplified from human fetal brain cDNA (Clontech, Mountain View, Calif.) using a forward primer corresponding to nucleotides 56-77 of human PDE10A2 (Accession No. AF127480, Genbank Identifier 4894716), containing a Kozak consensus sequence, and a reverse primer corresponding to nucleotides 2406-2413 of human PDE10A2 (Accession No. AF127480, Genbank Identifier 4894716). Amplification with Easy-A polymerase (Stratagene, La Jolla, Calif.) was 95° C. for 2 minutes followed by thirty three cycles of 95° C. for 40 seconds, 55° C. for 30 seconds, and 72° C. for 2 minutes 48 seconds. Final extension was 72° C. for 7 minutes. The PCR product was TA cloned into pcDNA3.2-TOPO (Invitrogen, Carlsbad, Calif.) according to standard protocol. AD293 cells with 70-80% confluency were transiently transfected with human PDE10A2/pcDNA3.2-TOPO using Lipofectamine 2000 according to manufacturer specifications (Invitrogen, Carlsbad, Calif.). Cells were harvested 48 hours post-transfection and lysed by sonication (setting 3, 10×5 sec pulses) in a buffer containing 20 mM HEPES, 1 mM EDTA and protease inhibitor cocktail (Roche). Lysate was collected by centrifugation at 75,000×g for 20 minutes. Supernatant containing the cytoplasmic fraction was used for evaluation of PDE10A2 activity. The fluorescence polarization assay for cyclic nucleotide phosphodiesterases was performed using an IMAP® FP kit supplied by Molecular Devices, Sunnyvale, Calif. (product #R8139). IMAP® technology has been applied previously to phosphodiesterase assays (Huang, W., et al., J. Biomol Screen, 2002, 7: 215). Assays were performed at room temperature in 384-well microtiter plates with an incubation volume of 20.2 μL. Solutions of test compounds were prepared in DMSO and serially diluted with DMSO to yield 8 μL of each of 10 solutions differing by 3-fold in concentration, at 32 serial dilutions per plate. 100% inhibition is determined using a known PDE10 inhibitor, which can be any compound that is present at 5,000 times its Ki value in the assay described as follows, such as papaverine (see Siuciak, et al. Neuropharmacology (2006) 51:386-396; Becker, et al. Behav Brain Res (2008) 186(2):155-60; Threlfell, et al., J Pharmacol Exp Ther (2009) 328(3):785-795), 2-{4-[pyridin-4-yl-1-(2,2,2-trifluoroethyl)-1H-pyrazol-3-yl]phenoxymethyl}quinoline succinic acid or 2-[4-(1-methyl-4-pyridin-4-yl-1H-pyrazol-3-yl)-phenoxymethyl]quinoline succinic acid (see Schmidt, et al. J Pharmacol Exp Ther (2008) 325:681-690; Threlfell, et al., J Pharmacol Exp Ther (2009) 328(3): 785-795). 0% of inhibition is determined by using DMSO (1% final concentrations).
A Labcyte Echo 555 (Labcyte, Sunnyvale, Calif.) is used to dispense 200 nL from each well of the titration plate to the 384 well assay plate. A solution of enzyme (1/1600 dilution from aliquots; sufficient to produce 20% substrate conversion) and a separate solution of FAM-labeled cAMP PDE from Molecular Devices (product #R7506), at a final concentration of 50 nM are made in the assay buffer (10 mM Tris HCl, pH 7.2, 10 mM MgCl2, 0.05% NaN3 0.01% Tween-20, and 1 mM DTT). The enzyme and the substrate are then added to the assay plates in two consecutive additions of 10 μL, and then shaken to mix. The reaction is allowed to proceed at room temperature for 30 minutes. A binding solution is then made from the kit components, comprised of 80% Solution A, 20% Solution B and binding reagent at a volume of 1/600 the total binding solution. […]

Chain of human PDE10A2 (Q9Y233 267-1055): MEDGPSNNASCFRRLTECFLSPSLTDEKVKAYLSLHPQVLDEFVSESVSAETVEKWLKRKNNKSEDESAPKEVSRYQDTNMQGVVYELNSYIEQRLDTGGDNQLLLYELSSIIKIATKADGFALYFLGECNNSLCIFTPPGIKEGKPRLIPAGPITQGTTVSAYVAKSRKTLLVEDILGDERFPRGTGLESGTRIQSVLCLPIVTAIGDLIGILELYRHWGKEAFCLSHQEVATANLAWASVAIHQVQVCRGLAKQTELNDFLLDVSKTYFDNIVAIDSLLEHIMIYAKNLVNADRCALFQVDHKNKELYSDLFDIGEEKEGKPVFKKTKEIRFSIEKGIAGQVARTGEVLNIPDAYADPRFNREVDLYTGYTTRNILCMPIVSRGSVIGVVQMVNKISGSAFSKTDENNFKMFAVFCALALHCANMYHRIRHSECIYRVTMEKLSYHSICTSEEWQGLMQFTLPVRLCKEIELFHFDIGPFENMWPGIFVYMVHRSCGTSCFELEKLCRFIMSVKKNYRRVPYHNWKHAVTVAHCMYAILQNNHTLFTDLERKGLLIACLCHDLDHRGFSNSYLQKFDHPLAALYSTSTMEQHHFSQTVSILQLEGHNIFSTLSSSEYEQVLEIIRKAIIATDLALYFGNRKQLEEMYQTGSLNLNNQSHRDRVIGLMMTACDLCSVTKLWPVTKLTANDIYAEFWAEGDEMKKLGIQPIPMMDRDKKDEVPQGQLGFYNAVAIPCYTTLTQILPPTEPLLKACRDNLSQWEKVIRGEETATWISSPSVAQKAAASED

Ki [nM] | SMILES
16.8 | COCCOc1nc(-c2ccc(Cl)nc2)nc2c1CN(C(=O)Oc1ccccc1)CC2 [Compound S-1, phenyl 2-(6-chloropyridin-3-yl)-4-(2-methoxyethoxy)-7,8-dihydropyrido[4,3-d]pyrimidine-6(5H)-carboxylate]
0.9 | CC(C)Oc1nc(-c2ccc(Cl)nc2)nc2c1CN(C(=O)Nc1cnn(C)c1)CC2 [Compound K-2, 2-(6-chloropyridin-3-yl)-N-(1-methyl-1H-pyrazol-4-yl)-4-(propan-2-yloxy)-7,8-dihydropyrido-[4,3-d]pyrimidine-6(5H)-carboxamide]
0.93 | COCCOc1nc(-c2ccc(Cl)nc2)nc2c1CN(C(=O)c1cnn3ccccc13)CC2 [Compound O-2, [2-(6-chloropyridin-3-yl)-4-(2-methoxyethoxy)-7,8-dihydropyrido[4,3-d]pyrimidin-6(5H)-yl](pyrazolo[1,5-a]pyridin-3-yl)methanone]
0.43 | COC[C@H](C)Oc1nc(-c2ccc(Cl)nc2)nc2c1CN(C(=O)c1ncn3ccccc13)CC2 [Compound T-1, [2-(6-chloropyridin-3-yl)-4-{[(2S)-1-methoxypropan-2-yl]oxy}-7,8-dihydropyrido[4,3-d]pyrimidin-6(5H)-yl](imidazo[1,5-a]pyridin-1-yl)methanone]
12.5 | COCCOc1nc(-c2ccc(C)nc2)nc2c1CN(C(=O)c1cnn3ccccc13)CC2 [Compound R-1, 4-(2-methoxyethoxy)-2-(6-methylpyridin-3-yl)-6-(pyrazolo[1,5-a]pyridin-3-ylcarbonyl)-5,6,7,8-tetrahydropyrido[4,3-d]pyrimidine]
0.99 | COCCOc1nc(-c2ccc(Cl)nc2)nc2c1CN(C(=O)c1ncn3ccccc13)CC2 [Compound Q-2, [2-(6-chloropyridin-3-yl)-4-(2-methoxyethoxy)-7,8-dihydropyrido[4,3-d]pyrimidin-6(5H)-yl](imidazo[1,5-a]pyridin-1-yl)methanone]
0.92 | COC[C@H](C)Oc1nc(-c2ccc(Cl)nc2)nc2c1CN(C(=O)Nc1ccc(C)nc1)CC2 [Compound P-5, 2-(6-chloropyridin-3-yl)-4-{[(2S)-1-methoxypropan-2-yl]oxy}-N-(6-methylpyridin-3-yl)-7,8-dihydropyrido[4,3-d]pyrimidine-6(5H)-carboxamide]
31.4 | Cc1ccc(NC(=O)N2CCc3nc(N4CCCC4)nc(OC(C)C)c3C2)cn1 [Compound N-5, 4-isopropoxy-N-(6-methylpyridin-3-yl)-2-pyrrolidin-1-yl-7,8-dihydropyrido[4,3-d]pyrimidine-6(5H)-carboxamide]

More lines, now with the values behind:

SMILES | Ki [nM]
Cc1ccc(C(=O)N2CCc3nc(-c4ccc(Cl)nc4)nc(OC(C)C)c3C2)cn1 [Compound 1-14, [2-(6-chloropyridin-3-yl)-4-(propan-2-yloxy)-7,8-dihydropyrido[4,3-d]pyrimidin-6(5H)-yl](6-methylpyridin-3-yl)methanone] | 9.9
Cc1ccc(NC(=O)N2CCc3nc(-c4ccc(Cl)nc4)nc(OC(C)C)c3C2)cn1 [Compound 1-11, 2-(6-chloropyridin-3-yl)-N-(6-methylpyridin-3-yl)-4-(propan-2-yloxy)-7,8-dihydropyrido[4,3-d]pyrimidine-6(5H)-carboxamide] | 0.6
CCc1cccc(NC(=O)N2CCc3nc(-c4cccnc4)nc(OC4CCN(C)CC4)c3C2)c1 [Compound 1-7, N-(3-ethylphenyl)-4-[(1-methylpiperidin-4-yl)oxy]-2-pyridin-3-yl-7,8-dihydropyrido[4,3-d]pyrimidine-6(5H)-carboxamide] | 14
COc1cc(NC(=O)N2CCc3nc(-c4ccc(Cl)nc4)nc(O[C@@H]4CCOC4)c3C2)ccn1 [Compound 1-13, 2-(6-chloropyridin-3-yl)-N-(2-methoxypyridin-4-yl)-4-[(3R)-tetrahydrofuran-3-yloxy]-7,8-dihydropyrido[4,3-d]pyrimidine-6(5H)-carboxamide] | 0.84
CC(C)Oc1nc(-c2cccnc2)nc2c1CN(c1nc3ccccc3o1)CC2 [Compound 1-18, 6-(1,3-benzoxazol-2-yl)-4-(propan-2-yloxy)-2-(pyridin-3-yl)-5,6,7,8-tetrahydropyrido[4,3-d]pyrimidine] | 15.9
CC(C)Oc1nc(-c2ccc(Cl)nc2)nc2c1CN(S(=O)(=O)c1cccnc1)CC2 [Compound 1-17, 2-(6-chloropyridin-3-yl)-4-(propan-2-yloxy)-6-(pyridin-3-ylsulfonyl)-5,6,7,8-tetrahydropyrido[4,3-d]pyrimidine] | 0.63
COc1ccc2[nH]c(C(=O)N3CCc4nc(-c5cccnc5)nc(OC(C)C)c4C3)cc2n1 [Compound 1-20, (5-methoxy-1H-pyrrolo[3,2-b]pyridin-2-yl)[4-(propan-2-yloxy)-2-(pyridin-3-yl)-7,8-dihydropyrido[4,3-d]pyrimidin-6(5H)-yl]methanone] | 0.8
CC(C)Oc1nc(-c2cccnc2)nc2c1CN(C(=O)Nc1ccc3ccn(C)c3c1)CC2 [Compound 1-8, 4-isopropoxy-N-(1-methyl-1H-indol-6-yl)-2-pyridin-3-yl-7,8-dihydropyrido[4,3-d]pyrimidine-6(5H)-carboxamide] | 9.2
CC(C)Oc1nc(-c2ccc(Cl)nc2)nc2c1CN(C(=O)c1cn(C)cn1)CC2 [Compound 1-19, [2-(6-chloropyridin-3-yl)-4-(propan-2-yloxy)-7,8-dihydropyrido[4,3-]pyrimidin-6(5H)-yl](1-methyl-1H-imidazol-4-yl)methanone] | 4.55
